Results: ChEMBL document CHEMBL1134980, “Structure-activity relationships for a series of thiobenzamide influenza fusion inhibitors derived from 1,3,3-trimethyl-5-hydroxy-cyclohexylmethylamine” (Bioorg Med Chem Lett, 2002)
Values after ≈ are worked out from the molar mass of the structure shown.

How the values were obtained:
Influenza A virus = test: Anti-influenza activity on A/WSN/33 (H1N1 subtype) strain of influenza virus infected on MDCK cells in cell protection assay.; assay type: functional, organism-based
MDCK = test: The concentration causing a 50% reduction in cell viability in the absence of influenza infection on MDCK cells in cell protection assay.; assay type: functional; conditions: Canis lupus familiaris

Row | Compound | EC50 (Influenza A virus) | IC50 (Influenza A virus) | CC50 (MDCK)
1 | Cc1ccc(C)c(/C(S)=N/C[C@@]2(C)C[C@@H](O)CC(C)(C)C2)c1 | Not Active | 1.5 µg/mL (≈ 4.69 µM) | 30 µg/mL (≈ 93.9 µM)
2 | Cc1ccc(/C(S)=N/C[C@@]2(C)C[C@H](O)CC(C)(C)C2)c(C)c1 | 0.15 µg/mL (≈ 0.469 µM) | 0.45 µg/mL (≈ 1.41 µM) | 35 µg/mL (≈ 110 µM)
3 | Cc1ccc(/C(S)=N/C[C@@]2(C)C[C@H](O)CC(C)(C)C2)cc1 | Not Active | 7 µg/mL (≈ 22.9 µM) | 40 µg/mL (≈ 131 µM)
4 | CC1(C)C[C@H](O)C[C@](C)(C/N=C(\S)c2cccc(F)c2)C1 | Not Active | 5 µg/mL (≈ 16.2 µM) | 20 µg/mL (≈ 64.6 µM)
5 | Cc1cccc(/C(S)=N/C[C@@]2(C)C[C@H](O)CC(C)(C)C2)c1 | 0.015 µg/mL (≈ 0.0491 µM) | 0.03 µg/mL (≈ 0.0982 µM) | 35 µg/mL (≈ 115 µM)
6 | Cc1ccc(O)c(/C(S)=N/C[C@@]2(C)C[C@@H](O)CC(C)(C)C2)c1 | 0.4 µg/mL (≈ 1.24 µM) | 0.16 µg/mL (≈ 0.498 µM) | 15 µg/mL (≈ 46.7 µM)
7 | CC1(C)C[C@@H](O)C[C@](C)(C/N=C(\S)c2cccc(C#N)c2)C1 | 2.5 µg/mL (≈ 7.9 µM) | Not Active | 22 µg/mL (≈ 69.5 µM)
8 | Cc1ccc(/C(S)=N/C[C@@]2(C)C[C@@H](O)CC(C)(C)C2)c(C)c1 | Not Active | Not Active | 30 µg/mL (≈ 93.9 µM)
9 | CC1(C)C[C@H](O)C[C@](C)(CNC(=O)Nc2ccccc2Cl)C1 (relative stereo) |  | 0.1 µg/mL (≈ 0.308 µM) | 
10 | CC1(C)C[C@H](O)C[C@](C)(C/N=C(\S)c2ccccc2O)C1 | 4.5 µg/mL (≈ 14.6 µM) | 2.4 µg/mL (≈ 7.81 µM) | 40 µg/mL (≈ 130 µM)
11 | Cc1ccc(C)c(/C(S)=N/C[C@@]2(C)C[C@H](O)CC(C)(C)C2)c1 | 0.023 µg/mL (≈ 0.072 µM) | 0.08 µg/mL (≈ 0.25 µM) | 45 µg/mL (≈ 141 µM)
12 | COC(=O)c1cccc(/C(S)=N/C[C@@]2(C)C[C@H](O)CC(C)(C)C2)c1 | Not Active | Not Active | 50 µg/mL (≈ 143 µM)
13 | CC1(C)C[C@H](O)C[C@](C)(C/N=C(\S)c2ccccc2)C1 | Not Active | 3.5 µg/mL (≈ 12 µM) | 50 µg/mL (≈ 172 µM)
14 | Cc1ccc(O)c(C(=O)NC[C@@]2(C)C[C@H](O)CC(C)(C)C2)c1 | 0.15 µg/mL (≈ 0.491 µM) | 0.015 µg/mL (≈ 0.0491 µM) | 70 µg/mL (≈ 229 µM)
15 | CC1(C)C[C@@H](O)C[C@](C)(C/N=C(\S)c2cc(Cl)ccc2O)C1 | 1.8 µg/mL (≈ 5.26 µM) | 1 µg/mL (≈ 2.92 µM) | 4 µg/mL (≈ 11.7 µM)
16 | Cc1cc(C)cc(/C(S)=N/C[C@@]2(C)C[C@@H](O)CC(C)(C)C2)c1 | Not Active | 0.5 µg/mL (≈ 1.56 µM) | 40 µg/mL (≈ 125 µM)
17 | Cc1cc(C)cc(/C(S)=N/C[C@@]2(C)C[C@H](O)CC(C)(C)C2)c1 | 0.03 µg/mL (≈ 0.0939 µM) | 0.52 µg/mL (≈ 1.63 µM) | 18 µg/mL (≈ 56.3 µM)
18 | CC1(C)C[C@@H](O)C[C@](C)(CNC(=O)c2ccccc2O)C1 |  |  | 90 µg/mL (≈ 309 µM)
19 | CC1(C)C[C@@H](O)C[C@](C)(C/N=C(\S)c2cccc(Cl)c2)C1 | 0.02 µg/mL (≈ 0.0614 µM) | 0.047 µg/mL (≈ 0.144 µM) | 20 µg/mL (≈ 61.4 µM)
20 | Cc1ccccc1/C(S)=N/C[C@@]1(C)C[C@H](O)CC(C)(C)C1 | 0.065 µg/mL (≈ 0.213 µM) | 0.14 µg/mL (≈ 0.458 µM) | 70 µg/mL (≈ 229 µM)

Row | Compound | EC50 (Influenza A virus) | IC50 (Influenza A virus) | CC50 (MDCK)
21 | CC1(C)C[C@@H](O)C[C@](C)(C/N=C(\S)c2ccccc2O)C1 | 2 µg/mL (≈ 6.5 µM) | 2.4 µg/mL (≈ 7.81 µM) | 40 µg/mL (≈ 130 µM)
22 | Cc1ccc(O)c(/C(S)=N/C[C@@]2(C)C[C@H](O)CC(C)(C)C2)c1 | 0.5 µg/mL (≈ 1.56 µM) | 0.33 µg/mL (≈ 1.03 µM) | 20 µg/mL (≈ 62.2 µM)
23 | Cc1ccc(O)c(C(=O)NC[C@@]2(C)C[C@@H](O)CC(C)(C)C2)c1 | 0.03 µg/mL (≈ 0.0982 µM) | 0.039 µg/mL (≈ 0.128 µM) | 50 µg/mL (≈ 164 µM)
24 | CC1(C)C[C@@H](O)C[C@](C)(CNC(=O)Nc2ccccc2Cl)C1 |  | 0.1 µg/mL (≈ 0.308 µM) | 
25 | CC1(C)C[C@@H](O)C[C@](C)(C/N=C(\S)c2cccc(C(F)(F)F)c2)C1 | 0.09 µg/mL (≈ 0.25 µM) | 0.3 µg/mL (≈ 0.835 µM) | 15 µg/mL (≈ 41.7 µM)
26 | Cc1cccc(/C(S)=N/C[C@@]2(C)C[C@@H](O)CC(C)(C)C2)c1 | Not Active | 7.5 µg/mL (≈ 24.6 µM) | 20 µg/mL (≈ 65.5 µM)
27 | CC1(C)C[C@@H](O)C[C@](C)(CNC(=O)c2cc(Cl)ccc2O)C1 | 0.2 µg/mL (≈ 0.614 µM) | 0.15 µg/mL (≈ 0.46 µM) | > 100 µg/mL
28 | COc1ccccc1/C(S)=N/C[C@@]1(C)C[C@@H](O)CC(C)(C)C1 | Not Active | Not Active | 45 µg/mL (≈ 140 µM)
29 | Cc1ccccc1/C(S)=N/C[C@@]1(C)C[C@@H](O)CC(C)(C)C1 | Not Active | 2.4 µg/mL (≈ 7.86 µM) | 2 µg/mL (≈ 6.55 µM)
30 | CC1(C)C[C@@H](O)C[C@](C)(C/N=C(\S)c2cccc([N+](=O)[O-])c2)C1 | Not Active | 1.8 µg/mL (≈ 5.35 µM) | 15 µg/mL (≈ 44.6 µM)
31 | Cc1ccc(/C(S)=N/C[C@@]2(C)C[C@@H](O)CC(C)(C)C2)cc1 | Not Active | Not Active | 25 µg/mL (≈ 81.8 µM)
32 | CC1(C)C[C@H](O)C[C@](C)(C/N=C(\S)c2cc(Cl)ccc2O)C1 | 0.9 µg/mL (≈ 2.63 µM) | 2.8 µg/mL (≈ 8.19 µM) | 5.5 µg/mL (≈ 16.1 µM)
33 | CC1(C)C[C@@H](O)C[C@](C)(C/N=C(\S)c2cccc(F)c2)C1 | 0.038 µg/mL (≈ 0.123 µM) | 0.19 µg/mL (≈ 0.614 µM) | 70 µg/mL (≈ 226 µM)
34 | CC1(C)C[C@H](O)C[C@](C)(CNC(=O)c2cc(Cl)ccc2O)C1 | 0.06 µg/mL (≈ 0.184 µM) | 0.025 µg/mL (≈ 0.0767 µM) | 80 µg/mL (≈ 246 µM)
35 | CC1(C)C[C@H](O)C[C@](C)(C/N=C(\S)c2cccc(C(F)(F)F)c2)C1 | Not Active | 23 µg/mL (≈ 64 µM) | 5 µg/mL (≈ 13.9 µM)
36 | CC1(C)C[C@@H](O)C[C@](C)(C/N=C(\S)c2ccccc2)C1 | 0.05 µg/mL (≈ 0.172 µM) | 0.15 µg/mL (≈ 0.515 µM) | 10 µg/mL (≈ 34.3 µM)
37 | COc1ccccc1/C(S)=N/C[C@@]1(C)C[C@H](O)CC(C)(C)C1 | 1 µg/mL (≈ 3.11 µM) | 0.5 µg/mL (≈ 1.56 µM) | 43 µg/mL (≈ 134 µM)
38 | CC1(C)C[C@H](O)C[C@](C)(C/N=C(\S)c2cccc(Cl)c2)C1 | Not Active | 2.5 µg/mL (≈ 7.67 µM) | 8.5 µg/mL (≈ 26.1 µM)
39 | CC1(C)C[C@H](O)C[C@](C)(CNC(=O)c2ccccc2O)C1 |  |  | 70 µg/mL (≈ 240 µM)
